From ChEMBL document CHEMBL1124966, “Cholecystokinin-A receptor ligands based on the kappa-opioid agonist tifluadom” (J Med Chem, 1990)

What follows are compounds tested against T1, Cholecystokinin receptor type A (Rattus norvegicus, UniProt P30551) (assay: Inhibition of binding of [125I]CCK-8 to Cholecystokinin type A receptor in rat pancreas).
T1 sequence (P30551 whole entry): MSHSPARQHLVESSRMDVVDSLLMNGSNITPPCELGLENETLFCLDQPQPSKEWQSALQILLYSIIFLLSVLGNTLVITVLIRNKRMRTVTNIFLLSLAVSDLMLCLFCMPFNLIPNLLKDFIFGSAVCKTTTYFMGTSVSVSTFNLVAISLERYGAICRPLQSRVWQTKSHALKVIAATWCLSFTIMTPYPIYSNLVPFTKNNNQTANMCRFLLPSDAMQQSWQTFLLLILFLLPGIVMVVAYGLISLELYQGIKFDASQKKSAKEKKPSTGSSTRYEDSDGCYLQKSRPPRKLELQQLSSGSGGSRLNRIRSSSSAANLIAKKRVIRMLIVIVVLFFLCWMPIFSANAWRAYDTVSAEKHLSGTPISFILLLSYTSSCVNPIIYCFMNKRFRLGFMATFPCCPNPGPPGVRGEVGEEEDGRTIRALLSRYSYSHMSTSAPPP

First: COC(=O)CC(NCC1CN=C(c2ccccc2F)c2ccccc2N1C)c1ccccc1 (centres undefined)
Second: CN1c2ccccc2C(c2ccccc2F)=NCC1CNC(=O)C(O)c1ccccc1 (centres undefined)
The IC50 of the first is 33-fold lower: 0.018 µM for the first, 0.6 µM for the second.

Going from `CCN(CC)CNCC1CN=C(c2ccccc2F)c2ccccc2N1C` (centres undefined) to `CCN(CC)c1ccc(NCC2CN=C(c3ccccc3F)c3ccccc3N2C)cc1C(F)(F)F` (centres undefined), the IC50 falls from over 100 µM to 100 µM. The second is the more potent here.

Going from `O=C(NCC1CNc2ccccc2C(c2ccccc2F)=N1)C(O)c1ccccc1` (single isomer, unassigned; form 1) to `O=C(NCC1CNc2ccccc2C(c2ccccc2F)=N1)OCc1ccccc1` (centres undefined), the IC50 rises from 8 µM to 28 µM (3.5-fold). The first is the more potent here.

First: O=C1Nc2ccccc2C(c2ccccc2F)=NC1CNCC1N=C(c2ccccc2F)c2ccccc2NC1=O (centres undefined)
Second: O=C(NCC1N=C(c2ccccc2F)c2ccccc2NC1=O)OCc1ccccc1 (centres undefined)
The IC50 of the first is 1.6-fold lower: 14 µM for the first, 22 µM for the second. The first is the more potent here.

First: Cc1ccc(C(=O)NC[C@@H]2CN=C(c3ccc(F)cc3)c3ccc(C)cc3N2C)cc1
Second: Cc1ccc(C(=O)NC[C@H]2CN=C(c3ccc(F)cc3)c3ccc(C)cc3N2C)cc1
The IC50 of the first is 9-fold lower: 0.029 µM for the first, 0.26 µM for the second.

Compared with `O=C(NCC1N=C(c2ccccc2F)c2ccccc2NC1=O)c1ccsc1` (centres undefined), `O=C(NCC1CNc2ccccc2C(c2ccccc2F)=N1)c1ccsc1` (centres undefined) is 2.2-fold lower in IC50: 22 µM for the first, 10 µM for the second. The second is the more potent here.

Compared with `O=C1Nc2ccccc2C(c2ccccc2F)=NC1CNc1cnc(Cl)cn1` (centres undefined), `NCC1N=C(c2ccccc2F)c2ccccc2NC1=O` (centres undefined) is higher in IC50: 15 µM for the first, over 100 µM for the second.

Going from `O=C(NCC1CNc2ccccc2C(c2ccccc2F)=N1)c1cc2ccccc2[nH]1` (centres undefined) to `O=C(NCC1N=C(c2ccccc2F)c2ccccc2NC1=O)c1cc2ccccc2[nH]1` (centres undefined), the IC50 rises from 4 µM to 7 µM (1.8-fold). The first is the more potent here.

Going from `CN1c2ccccc2C(c2ccccc2F)=NCC1CNC(=O)c1ccsc1` (racemic) [TIFLUADOM] to `O=C(NCC1CNc2ccccc2C(c2ccccc2F)=N1)C(O)c1ccccc1` (single isomer, unassigned; form 2), the IC50 rises from 0.047 µM to over 100 µM.

Each compound was assayed against Opioid receptor (Rattus norvegicus, UniProt P33533+P34975+P33535) (assay: Displacement of [3H]dihydromorphine (DHM) from rat brain Opioid receptors).

First: CN1c2ccccc2C(c2ccccc2F)=NCC1CNC(=O)c1ccc(Cl)cc1 (centres undefined)
Second: CN1c2ccccc2C(c2ccccc2F)=NCC1CNC(=O)c1cccnc1 (centres undefined)
The IC50 of the first is 900-fold lower: 0.0005 µM for the first, 0.45 µM for the second.

Compared with `CN1c2ccccc2C(c2ccccc2F)=NCC1CNC(=O)C(N)Cc1c[nH]c2ccccc12` (centres undefined), `CN1c2ccccc2C(c2ccccc2F)=NCC1CNC(=O)Cc1c[nH]c2ccccc12` (centres undefined) is 1.8-fold lower in IC50: 0.04 µM for the first, 0.022 µM for the second.

First: COC(=O)CC(NCC1CN=C(c2ccccc2F)c2ccccc2N1C)c1ccccc1 (centres undefined)
Second: CN1c2ccccc2C(c2ccccc2F)=NCC1CNC(=O)C(O)c1ccccc1 (centres undefined)
The IC50 of the first is 2.6-fold higher: 0.018 µM for the first, 0.007 µM for the second.

First: CN1c2ccccc2C(c2ccccc2F)=NCC1CNC(=O)c1cc2ccccc2[nH]1 (centres undefined)
Second: CN1c2ccccc2C(c2ccccc2F)=NCC1CNC(=O)Cc1cccc2sccc12 (centres undefined)
The IC50 of the first is 10-fold lower: 0.0003 µM for the first, 0.003 µM for the second.

Compared with `CN1c2ccccc2C(c2ccccc2F)NCC1CNC(=O)c1ccsc1` (centres undefined), `CC(=O)NCSCC(=O)NCC1CN=C(c2ccccc2F)c2ccccc2N1C` (centres undefined) is 4-fold higher in IC50: 0.03 µM for the first, 0.12 µM for the second.

Compound `O=C(NCC1N=C(c2ccccc2F)c2ccccc2NC1=O)OCc1ccccc1` (centres undefined) has an IC50 of 12 µM.
